In data set [1] the test system is HIV-2. The note with it: 25 mM, human plasma, 30 min; cited from earlier work.
Data set [2] has as its system HIV-1. The note with it: 25 mM, human plasma, 30 min; cited from earlier work.
For data set [3], the system named is HSV-1. As to the kind of experiment: Virucidal activity against HSV-1 in culture medium (MM). It is filed as cell-based, Herpes simplex virus type 1. The note with it: room temperature, 1 minute.
Data set [4] concerns HSV-1. As to the kind of experiment: Virucidal activity against HSV-1 in human semen. The note with it: room temperature, 1 minute.
Data set [5] deals with C. trachomatis. As to the kind of experiment: Inactivation of C. trachomatis. The note with it: 37° C., 10 minutes.
For data set [6], the system named is Enveloped viruses. Conditions: virucidal activity in cell culture media; cited from earlier work.
For data set [7], the system named is VV. As to the kind of experiment: Virucidal activity against visna virus (VV) in culture medium (MM). Type of data set: cell-based. The note with it: room temperature, 1 minute. As to the method:
The lipids were dissolved in ethanol at a concentration of 1 M and stored at 4° C. In each experiment they were suspended in MM by vortexing at the highest speed for 1 min.

Data set [8] concerns vaginal mucosa of rabbits. The note with it: rabbit, in vivo.

Structures are written as SMILES.

On to `CCCCCCCCOC[C@@H](O)CO` [1-0-Octyl-SN-glycerol], for which the “inactivated HIV-2” value in data set [1] is “more than 10^9 fold”. The “inactivated HIV-1” value in data set [2] is “more than 10^9 fold”.
For the molecule `CCCCCCCCCC(=O)O` [Capric acid, capric acid], in data set [3] (lipid 20 mM in MM), the “Reduction of virus titer,log10 HSV-1” value is on record as <0.5 log10.
On to `CCCCCCCC(=O)OCC(O)CO` (stereo not shown) [Caprylic acid 1-monoglyceride, caprylic acid 1-monoglyceride], for which the “Reduction of virus titer,log10 HSV-1” value in data set [3] (lipid 10 mM in MM) is given as 0 log10; in data set [3] (lipid 20 mM in MM), 0.5 log10. Moreover, in data set [4] (monoglyceride 20 mM), the “Reduction of HSV-1 titer, log10” value is on record as 1.0 log10. The figures for the “Reduction of IFU (log10)” value in data set [5] (monoglyceride 5 mM in medium), in data set [5] (monoglyceride 10 mM in medium) and in data set [5] (monoglyceride 20 mM in medium) were 0.1 log10, 0.3 log10 and 0.2 log10, respectively.
As to `CCCCCCCCCCCC(=O)OCC(O)CO` (stereo not shown) [Lauric acid 1-monoglyceride, lauric acid 1-monoglyceride], the “more active than the corresponding free fatty acid (capric and lauric acids)” value in data set [6] is listed as 10 fold. The “Reduction of virus titer,log10 HSV-1” value in data set [3] (lipid 5 mM in MM) amounted to 3.0 log10; in data set [3] (lipid 10 mM in MM) it was 3.5 log10; in data set [3] (lipid 20 mM in MM) it was 3.1 log10. Further, in data set [4] (monoglyceride 20 mM), the “Reduction of HSV-1 titer, log10” value was found to be 2.0 log10. Besides, the “Reduction of IFU (log10)” value in data set [5] (monoglyceride 5 mM in medium) worked out at 0.5 log10; in data set [5] (monoglyceride 10 mM in medium), 0.7 log10; in data set [5] (monoglyceride 20 mM in medium), 0.5 log10.
Regarding `CCCCCCCCCCCC(=O)O` [Lauric acid, lauric acid], the “Reduction of virus titer,log10 HSV-1” value in data set [3] (lipid 10 mM in MM) was <1.5 log10; in data set [3] (lipid 20 mM in MM) it was >5.8 log10.
In the case of `CCCCCCCCCC(=O)OCC(O)CO` (stereo not shown) [Monocaprin, capric acid 1-monoglyceride], the “more active than the corresponding free fatty acid (capric and lauric acids)” value in data set [6] was 10 fold. The “Reduction of virus titer,log10 HSV-1” value in data set [3] (lipid 2.5 mM in MM) was 2.2 log10; in data set [3] (lipid 5 mM in MM) it was >5.5 log10; in data set [3] (lipid 10 mM in MM), >5.3 log10; in data set [3] (lipid 20 mM in MM) it was >5.8 log10. Besides, the “Reduction of virus titer,log10 VV” value in data set [7] (lipid 10 mM in MM) came out at 2.4 log10; in data set [7] (lipid 20 mM in MM), 3.8 log10. The “Reduction of HSV-1 titer, log10” value in data set [4] (monoglyceride 10 mM) was 3.0 log10; in data set [4] (monoglyceride 20 mM) it was >4.0 log10. Further, the “Reduction of IFU (log10)” value is listed as >5.6 log10 in data set [5] (monoglyceride 5 mM in medium), >5.6 log10 in data set [5] (monoglyceride 10 mM in medium) and >4.6 log10 in data set [5] (monoglyceride 20 mM in medium).
Consider `CCCCCCCCCCCCCC(=O)O` [Myristic acid, myristic acid], for which the “Reduction of virus titer,log10 HSV-1” value in data set [3] (lipid 10 mM in MM) and in data set [3] (lipid 20 mM in MM) was 0 log10 in each case.
Turning to `CCCCCCCC/C=C\CCCCCCCC(=O)OCC(O)CO` (stereo not shown) [Oleic acid 1-monoglyceride, oleic acid 1-monoglyceride], the “Reduction of virus titer,log10 HSV-1” value in data set [3] (lipid 10 mM in MM) and in data set [3] (lipid 20 mM in MM) was <1.0 log10 throughout.
In the case of `CCCCCCCC/C=C\CCCCCCCC(=O)O` [Oleic acid, oleic acid], the “Reduction of virus titer,log10 HSV-1” value in data set [3] (lipid 10 mM in MM) and in data set [3] (lipid 20 mM in MM) was <1.0 log10 in each case.
With `CCCCCC/C=C\CCCCCCCC(=O)OCC(O)CO` (stereo not shown) [Palmitoleic acid 1-monoglyceride, palmitoleic acid 1-monoglyceride], the “Reduction of virus titer,log10 HSV-1” value in data set [3] (lipid 10 mM in MM) and in data set [3] (lipid 20 mM in MM) was 0 log10 each time. Also, in data set [7] (lipid 10 mM in MM), the “Reduction of virus titer,log10 VV” value is 0.7 log10.
With `CCCCCC/C=C\CCCCCCCC(=O)O` [Palmitoleic acid, palmitoleic acid], the “Reduction of virus titer,log10 HSV-1” value is on record as <1.0 log10 in data set [3] (lipid 5 mM in MM) and >5.0 log10 in data set [3] (lipid 10 mM in MM).
With `CC(O)CO` (stereo not shown) [propylene glycol], in data set [8], the “effects in the vaginal mucosa of rabbits (in words)” value is on record as “toxic effects”.

The values are drawn from patent publication US6596763B1, “Topical formulations containing as a therapeutic active agent fatty acids or fatty alcohols or monoglyceride derivatives thereof for treating of mucosa infections” (priority 1996, dated 2003).
